How the values were obtained:
[1] = molecular target: T1, ATP-dependent translocase ABCB1 (Homo sapiens, UniProt P08183); experiment: TP_TRANSPORTER: RT-PCR in vivo, duodenal; format: functional, organism-based, Duodenum
[2] = molecular target: T1, ATP-dependent translocase ABCB1; experiment: TP_TRANSPORTER: immunohistochemistry in vivo, duodenum; format: functional, organism-based

T1 sequence (P08183 whole entry): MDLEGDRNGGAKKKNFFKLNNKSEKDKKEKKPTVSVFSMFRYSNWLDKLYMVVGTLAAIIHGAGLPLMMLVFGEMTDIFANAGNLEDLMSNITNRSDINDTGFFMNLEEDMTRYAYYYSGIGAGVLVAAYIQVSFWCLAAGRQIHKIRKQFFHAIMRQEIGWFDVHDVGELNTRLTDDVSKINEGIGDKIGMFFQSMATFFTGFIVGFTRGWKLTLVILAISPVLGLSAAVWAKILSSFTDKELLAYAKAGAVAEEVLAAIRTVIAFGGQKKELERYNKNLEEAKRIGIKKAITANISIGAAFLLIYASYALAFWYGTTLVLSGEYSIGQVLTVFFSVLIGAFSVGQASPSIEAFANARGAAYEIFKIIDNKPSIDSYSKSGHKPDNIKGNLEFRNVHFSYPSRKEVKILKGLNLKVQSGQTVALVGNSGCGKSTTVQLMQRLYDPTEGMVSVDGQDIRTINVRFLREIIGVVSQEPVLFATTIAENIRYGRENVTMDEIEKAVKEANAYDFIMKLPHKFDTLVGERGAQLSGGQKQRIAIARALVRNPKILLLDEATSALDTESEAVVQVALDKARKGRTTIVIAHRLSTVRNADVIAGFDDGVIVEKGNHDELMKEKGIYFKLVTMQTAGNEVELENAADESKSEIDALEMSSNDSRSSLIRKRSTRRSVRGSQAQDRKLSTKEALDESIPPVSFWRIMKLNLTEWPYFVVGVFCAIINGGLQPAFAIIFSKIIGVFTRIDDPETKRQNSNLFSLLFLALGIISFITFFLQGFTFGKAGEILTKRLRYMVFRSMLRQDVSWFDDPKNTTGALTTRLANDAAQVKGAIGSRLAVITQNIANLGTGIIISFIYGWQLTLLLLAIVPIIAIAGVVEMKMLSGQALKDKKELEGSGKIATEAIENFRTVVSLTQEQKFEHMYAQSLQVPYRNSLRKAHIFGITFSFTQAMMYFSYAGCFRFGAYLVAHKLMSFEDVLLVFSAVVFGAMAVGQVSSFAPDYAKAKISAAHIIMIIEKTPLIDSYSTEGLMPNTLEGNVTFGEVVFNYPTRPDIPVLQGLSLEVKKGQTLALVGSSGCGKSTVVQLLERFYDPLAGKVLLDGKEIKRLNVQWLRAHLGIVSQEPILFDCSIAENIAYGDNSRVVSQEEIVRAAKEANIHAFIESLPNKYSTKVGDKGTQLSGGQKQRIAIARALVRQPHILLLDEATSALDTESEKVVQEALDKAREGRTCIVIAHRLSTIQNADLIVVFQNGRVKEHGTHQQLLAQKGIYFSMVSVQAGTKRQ

With N[C@@H](Cc1cc(I)c(Oc2cc(I)c(O)c(I)c2)c(I)c1)C(=O)O [LEVOTHYROXINE] the Activity [1] was “inducer [+]” and the Activity [2] was “inducer [+]”.

— ChEMBL document CHEMBL2073904, “Effect of levothyroxine administration on intestinal P-glycoprotein expression: consequences for drug disposition” (Clin Pharmacol Ther, 2002)
